The source of these data is patent US20180118721A1, “PYRIMIDINE DERIVATIVES” (Merck Patent GmbH, priority 2015, published 2018).

Molecules are shown by their SMILES.

The assay concerns the target T1, purified human recombinant MTH1 (human MTH1, residues 42-197) (Homo sapiens, UniProt P36639).
T1 construct: human MTH1, residues 42-197, Uniprot-ID: P36639, expressed in E. coli; made in house; host or cells: E. coli
In words: MTH1 enzymatic assay (luminescence-based, PPiLight). The format is biochemical. The following applies: 6 μM 8-oxo-dGTP, Table 1, grouped. Here is the method:
The IC50 value was determined by a MTH1 enzymatic assay. The assay comprises the principal steps of incubating a mixture of MTH1, the compound in question at different concentrations and 8-oxo-2′-deoxyguanosine-5′-triphosphate (8-oxo-dGTP) in assay buffer. Nucleotide triphosphate hydrolysis by MTH1, i.e. decomposition of 8-oxo-2′-deoxyguanosine-5′-triphosphate, produces 8-oxo-2′-deoxyguanosine-5′-monophosphate (8-oxo-dGMP) and pyrophosphate (PPi). The amount of generated pyrophosphate (PPi) is then measured by a bioluminescent reaction. In detail: The MTH1 (human mutT homologue 1) enzymatic assay is performed as a luminescence-based 384-well assay. […] The assay buffer contains 100 mM Tris-acetate pH 7.5, 40 mM NaCl, 10 mM Mg(OAc)2, 0.005% Tween 20 and 2 mM dithiothreitol (DTT). […] Then, in a second step, the substrate 8-oxo-dGTP is added and the reaction mixture is incubated for 30 minutes at 22° C. The pharmacologically relevant assay volume is 5 PI. The final concentrations in the assay during incubation of the reaction mixture are 0.1-0.2 nM, typically 0.1 nM, MTH1 and 6 μM 8-oxo-dGTP. After incubation of the reaction mixture, the generation of pyrophosphate (PPi) as a result of nucleotide triphosphate (8-oxo-dGTP) hydrolysis by MTH1 is detected using the PPiLight inorganic pyrophosphate assay kit (Lonza) (third step). 2 to 5 μl, such as 3 to 5 μl, typically 3 or 4 μl, for instance 4 μl, of a 1:1 mixture of PPiLight converting reagent (AMP) and PPiLight detection reagent are added to the reaction mixture. In the presence of pyrophosphate, the detection reagent catalyzes the conversion of AMP to ATP. Luciferase then produces light from the newly formed ATP and luciferin. The amount of light produced is directly proportional to the amount of PPi in the sample. Following signal development for 1 h the plates are analysed in an EnVision (PerkinElmer) microplate reader using the ultra sensitive luminescence option. Data are processed employing the Genedata Screener software. In particular, IC50 values are determined in the usual manner (using the Hill Equation) by fitting a dose-response curve to the data points using nonlinear regression analysis.
Hill Equation: Y=S0+(Sinf−S0)/(1+(10^logIC50/10^c)^n); Y: luminescence signal (response), S0: activity level at zero concentration of test compound, Sinf=activity level at infinite concentration, Hill coefficient n=measure of the slope at IC50, c=concentration in logarithmic units corresponding to the values on the x-axis of the dose response curve plot
Consider `Nc1nc(NC2CC2)cc(N2CC[C@](O)(c3ccccc3)C2)n1` (single isomer, unassigned) [Example 37], for which the concentration for half-maximal inhibition (IC50) lay within 1 to 100 nM.

For the compound `Nc1nc(NC2CC2)cc(N2CC[C@@](O)(c3ccccc3)C2)n1` (single isomer, unassigned) [Example 38], the IC50 lay in the range of 1 to 100 nM.

Take `CNc1cc(N2CCC[C@@](O)(c3ccccc3)C2)nc(N)n1` (single isomer, unassigned) [Example 90]: the IC50 is 1 to 100 nM.

For `CNc1cc(N2CCCCC2Cc2ccccc2OC)nc(N)n1` (single isomer, unassigned) [Example 106], the IC50 was less than 1 nM.

As to `CNc1cc(N2CCC(CO)C2)nc(N)n1` (stereo not drawn) [Example 1, [1-(2-amino-6-methylamino-pyrimidin-4-yl)-pyrrolidin-3-yl]-methanol], the half-inhibitory concentration (IC50) is less than 1 nM.

Consider `Nc1nc(NC2CC2)cc(N2CCC(CO)C2)n1` (stereo not drawn) [Example 2, [1-(2-amino-6-cyclopropyl amino-pyrimidin-4-yl)-pyrrolidin-3-yl]-methanol], for which the IC50 was less than 1 nM.

For the compound `Nc1nc(NC2CC2)cc(N2CCC(F)(F)C2)n1` [Example 4, N^4-cyclopropyl-6-(3,3-difluoro-pyrrolidin-1-yl)-pyrimidine-2,4-diamine], the IC50 lay within 1 to 100 nM.

Consider `Nc1nc(NC2CC2)cc(N2CCC(O)C2)n1` (stereo not drawn) [Example 6, 1-(2-amino-6-cyclopropylamino-pyrimidin-4-yl)-pyrrolidin-3-ol], for which the IC50 lay in the range of 1 to 100 nM.

On to `CNc1cc(N2CCC(OC)C2)nc(N)n1` (stereo not drawn) [Example 9, 86-(3-methoxy-pyrrolidin-1-yl)-N^4-methyl-pyrimidine-2,4-diamine-formate], for which the IC50 was less than 1 nM.

Take `COC1CCN(c2cc(NC3CC3)nc(N)n2)C1` (stereo not drawn) [Example 10, N^4-cyclopropyl-6-(3-methoxy-pyrrolidin-1-yl)-pyri midine-2,4-diamine-formate]: the IC50 lay within 1 to 100 nM.

On to `Nc1nc(NC2CC2)cc(N2CCC[C@@H]2CO)n1` [Example 11, [(R)-1-(2-amino-6-cyclopropylamino-pyrimidin-4-yl)-pyrrolidin-2-yl]-methanol-formate], for which the IC50 is 1 to 100 nM.

As for `CNc1cc(N2CCC[C@H]2CO)nc(N)n1` [Example 12, [(S)-1-(2-amino-6-methylamino-pyrimidin-4-yl)-pyrrolidin-2-yl]-methanol], the IC50 lay in the range of 1 to 100 nM.

`Nc1nc(NC2CC2)cc(N2CCC[C@H]2CO)n1` [Example 13, [(S)-1-(2-amino-6-cyclopropylamino-pyrimidin-4-yl)-pyrrolidin-2-yl]-methanol]: the IC50 is 1 to 100 nM.

As to `Nc1nc(NC2CC2)cc(N2CCCC2Cc2ccccc2Cl)n1` (stereo not drawn) [Example 36, 6-[2-(2-Chloro-benzyl)-pyrrolidin-1-yl]-N4-cyclopropyl-pyrimidine-2,4-diamine], the IC50 is less than 1 nM.

In the case of `CC1CCN(c2cc(NC3CC3)nc(N)n2)C1C` (stereo not drawn) [Example 39, N4-Cyclopropyl-6-(2,3-dimethyl-pyrrolidin-1-yl)-pyrimidine-2,4-diamine], the IC50 is 1 to 100 nM.

For `CCC1(O)CCN(c2cc(NC3CC3)nc(N)n2)C1` (stereo not drawn) [Example 40, 1-(2-Amino-6-cyclopropylamino-pyrimidin-4-yl)-3-ethyl-pyrrolidin-3-ol], the IC50 was in the range of 1 to 100 nM.

For the compound `CC1C(c2ccccc2)CCN1c1cc(NC2CC2)nc(N)n1` (stereo not drawn) [Example 41, N4-Cyclopropyl-6-(2-methyl-3-phenyl-pyrrolidin-1-yl)-pyrimidine-2,4-diamine], the IC50 is 1 to 100 nM.

For the compound `Nc1nc(NC2CC2)cc(N2CCC(O)(C(F)(F)F)C2)n1` (stereo not drawn) [Example 42, 1-(2-Amino-6-cyclopropylamino-pyrimidin-4-yl)-3-trifluoromethyl-pyrrolidin-3-ol], the IC50 is 1 to 100 nM.

As for `NC(=O)[C@@H]1CCN(c2cc(NC3CC3)nc(N)n2)C1` [Example 59, (R)-1-(2-Amino-6-cyclopropylamino-pyrimidin-4-yl)-pyrrolidine-3-carboxylic acid amide], the IC50 fell in the range of 1 to 100 nM.

Regarding `CNc1cc(N2CC[C@@H](O)C2)nc(N)n1` [Example 60, (R)-1-(2-Amino-6-methylamino-pyrimidin-4-yl)-pyrrolidin-3-ol], the half-inhibitory concentration (IC50) lay in the range of 1 to 100 nM.

Take `NC(=O)[C@H]1CCN(c2cc(NC3CC3)nc(N)n2)C1` [Example 61, (S)-1-(2-Amino-6-cyclopropylamino-pyrimidin-4-yl)-pyrrolidine-3-carboxylic acid amide]: the IC50 was 1 to 100 nM.

As to `CNc1cc(N2CC[C@@H](CO)C2)nc(N)n1` [Example 64, [(R)-1-(2-Amino-6-methylamino-pyrimidin-4-yl)-pyrrolidin-3-yl]-methanol], the IC50 was less than 1 nM.

In the case of `CNc1cc(N2CC[C@H](CO)C2)nc(N)n1` [Example 65, [(S)-1-(2-Amino-6-methylamino-pyrimidin-4-yl)-pyrrolidin-3-yl]-methanol], the half-inhibitory concentration (IC50) was less than 1 nM.

Turning to `Nc1nc(NC2CC2)cc(N2CC[C@@H](CO)C2)n1` [Example 66, [(R)-1-(2-Amino-6-cyclopropylamino-pyrimidin-4-yl)-pyrrolidin-3-yl]-methanol], the IC50 is less than 1 nM.

With `Nc1nc(NC2CC2)cc(N2CC[C@H](CO)C2)n1` [Example 67, [(S)-1-(2-Amino-6-cyclopropylamino-pyrimidin-4-yl)-pyrrolidin-3-yl]-methanol], the IC50 was 1 to 100 nM.

Turning to `CCNc1cc(N2CCC(F)(F)C2)nc(N)n1` [Example 68, 6-(3,3-Difluoro-pyrrolidin-1-yl)-N4-ethyl-pyrimidine-2,4-diamine], the IC50 is 1 to 100 nM.

As for `CC(C)Nc1cc(N2CCC(F)(F)C2)nc(N)n1` [Example 69, 6-(3,3-Difluoro-pyrrolidin-1-yl)-N4-isopropyl-pyrimidine-2,4-diamine], the IC50 was 1 to 100 nM.

Consider `Nc1nc2c(c(N3CC[C@@H](O)C3)n1)CCCN2` [Example 70, (R)-1-(2-Amino-5,6,7,8-tetrahydro-pyrido[2,3-d]pyrimidin-4-yl)-pyrrolidin-3-ol], for which the IC50 is less than 1 nM.

On to `Nc1nc(NCC2CC2)cc(N2CCC(F)(F)C2)n1` [Example 71, N4-Cyclopropylmethyl-6-(3,3-difluoro-pyrrolidin-1-yl)-pyrimidine-2,4-diamine], for which the IC50 was 1 to 100 nM.

In the case of `CCCNc1cc(N2CCC(F)(F)C2)nc(N)n1` [Example 72, 6-(3,3-Difluoro-pyrrolidin-1-yl)-N4-propyl-pyrimidine-2,4-diamine], the IC50 lay within 1 to 100 nM.

As for `Nc1nc2c(c(N3CC[C@H](O)C3)n1)CCCN2` [Example 73, (S)-1-(2-Amino-5,6,7,8-tetrahydro-pyrido[2,3-d]pyrimidin-4-yl)-pyrrolidin-3-ol-formiate], the concentration for half-maximal inhibition (IC50) lay within 1 to 100 nM.

As for `FC1(F)CCN(c2ncnc3c2CCCN3)C1` [Example 74, 4-(3,3-Difluoro-pyrrolidin-1-yl)-5,6,7,8-tetrahydro-pyrido[2,3-d]pyrimidine], the IC50 was greater than 100 nM.

On to `NC(=O)[C@@H]1CCN(c2nc(N)nc3c2CCCN3)C1` [Example 75, (R)-1-(2-Amino-5,6,7,8-tetrahydro-pyrido[2,3-d]pyrimidin-4-yl)-pyrrolidine-3-carboxylic acid amide-trifluoroacetate], for which the IC50 was greater than 100 nM.

On to `CNc1cc(N2CCCC(O)(c3ccccc3)C2)nc(N)n1` (stereo not drawn) [Example 79, 1-(2-Amino-6-methylamino-pyrimidin-4-yl)-3-phenyl-piperidin-3-ol], for which the IC50 is 1 to 100 nM.

As for `Nc1nc(NC2CC2)cc(N2CCCC2C(=O)O)n1` (stereo not drawn) [Example 80, 1-(2-Amino-6-cyclopropylamino-pyrimidin-4-yl)-pyrrolidine-2-carboxylic acid], the IC50 is greater than 100 nM.

As for `CNc1cc(N2CCCC2Cc2ccccc2OC)nc(N)n1` (stereo not drawn) [Example 82, 6-[2-(2-Methoxy-benzyl)-pyrrolidin-1-yl]-N4-methyl-pyrimidine-2,4-diamine], the IC50 was less than 1 nM.

Turning to `CNc1cc(N2CCCC2C(C)(C)c2ccccc2)nc(N)n1` (stereo not drawn) [Example 83, N4-Methyl-6-[2-(1-methyl-1-phenylethyl)-pyrrolidin-1-yl]-pyrimidine-2,4-diamine], the IC50 was less than 1 nM.

`CNc1cc(N2CCCC2Cc2ccccc2C)nc(N)n1` (stereo not drawn) [Example 89, N4-Methyl-6-[2-(2-methyl-benzyl)-pyrrolidin-1-yl]-pyrimidine-2,4-diamine]: the IC50 is less than 1 nM.

For the compound `CNc1cc(N2CCC[C@@H]2Cc2ccccc2OC)nc(N)n1` [Example 93, 6-[(R)-2-(2-Methoxy-benzyl)-pyrrolidin-1-yl]-N4-methyl-pyrimidine-2,4-diamine], the IC50 was less than 1 nM.
